Measured values as given in patent US20100137372A1, “ISOXAZOLINE COMPOUNDS AND THEIR USE IN PEST CONTROL” (priority 2007, published 2010).

The molecules below were run on summer fruit tortrix (Adoxophyes orana) (assay: Test Example 2: artificial feed irrigated with test dilution, mortality of summer fruit tortrix larvae). Settings: 168 h.
Assay type: in vivo
Procedure: The formulation of the present compound (79) obtained according to Formulation Example 5 was diluted with water so as to have an active ingredient concentration of 2,500 ppm. Thus, a test dilution was prepared.
The bottom of a polyethylene cup having a diameter of 5.5 cm was covered with a filter paper having the same diameter. Artificial feed (Silkmate 2S; Nihon Nosan Kogyo K.K.) sliced in a thickness of 2 mm was placed on the filter paper, and 1 mL of the above-mentioned test dilution was irrigated on the artificial feed. After air-drying of the test dilution, a filter paper having a diameter of 5.5 cm was placed on the artificial feed, and 30 first-instar larvae of summer fruit tortrix (Adoxophyes orana) were released on this filter paper, after which the cup was closed with a lid. After 7 days, larvae of summer fruit tortrix were counted and the mortality was calculated by the following equation:
Mortality (t)=(Number of dead larvae/Number of released larvae)×100

| Structure (SMILES) | mortality at 2500 ppm |
| --- | --- |
| COC(=O)Nc1cc(C2=NOC(c3cc(Cl)cc(Cl)c3)(C(F)(F)F)C2)ccc1Cl (centres unmarked) [present compound (79), N-(5-(5-(3,5-dichlorophenyl)-4,5-dihydro-5-trifluoromethyl-3-isoxazolyl)-2-chlorophenyl)-O-methylcarbamate] | ≥ 80% |

Same assay, conditions: 168 h, active ingredient concentration 2,500 ppm, 1 mL on artificial feed, 30 first-instar larvae, counted after 7 days, read-out: Mortality

| Structure (SMILES) | mortality at 2500 ppm |
| --- | --- |
| COC(=O)NNc1cc(C2=NOC(C)(c3ccccc3)C2)ccc1Cl (centres unmarked) [compound number 1-2, reference compound] | 0% |

What follows are molecules tested on diamondback moth (Plutella xylostella) (assay: Test Example 1: spray of test liquid on cabbage plant, control efficacy against diamondback moth larvae). Settings: 120 h, active ingredient concentration 500 ppm, 20 ml per cup sprayed on cabbage, 10 third-instar larvae, counted after 5 days.
Assay type: in vivo

| Structure (SMILES) | pest or weed control at 500 ppm |
| --- | --- |
| COC(=O)NNc1cc(C2=NOC(C)(c3ccccc3)C2)ccc1Cl (centres unmarked) [compound number 1-2, reference compound] | 0% |
| N#Cc1ccc(C(=O)Nc2cccc(C3=NOC(c4cc(Cl)cc(Cl)c4)(C(F)(F)F)C3)c2)cc1 (centres unmarked) [present compound (5), N-(3-(5-(3,5-dichlorophenyl)-4,5-dihydro-5-trifluoromethyl-3-isoxazolyl)phenyl)-4-cyanobenzamide] | ≥ 80% |
| O=C(Nc1cccc(C2=NOC(c3cc(Cl)cc(Cl)c3)(C(F)(F)F)C2)c1)c1cccnc1Cl (centres unmarked) [present compound (7), N-(3-(5-(3,5-dichlorophenyl)-4,5-dihydro-5-trifluoromethyl-3-isoxazolyl)phenyl)-2-chloronicotinamide] | ≥ 80% |
| Cc1ccc(C2=NOC(c3cc(Cl)cc(Cl)c3)(C(F)(F)F)C2)cc1NC(=O)c1ccccc1F (centres unmarked) [present compound (13), N-(5-(5-(3,5-dichlorophenyl)-4,5-dihydro-5-trifluoromethyl-3-isoxazolyl)-2-methylphenyl)-2-fluorobenzamide] | ≥ 80% |
| Cc1ccc(C2=NOC(c3cc(Cl)cc(Cl)c3)(C(F)(F)F)C2)cc1NC(=O)c1ccc(F)cc1 (centres unmarked) [present compound (15), N-(5-(5-(3,5-dichlorophenyl)-4,5-dihydro-5-trifluoromethyl-3-isoxazolyl)-2-methylphenyl)-4-fluorobenzamide] | ≥ 80% |
| Cc1ccc(C2=NOC(c3cc(Cl)cc(Cl)c3)(C(F)(F)F)C2)cc1NC(=O)c1cccc(Cl)c1 (centres unmarked) [present compound (17), N-(5-(5-(3,5-dichlorophenyl)-4,5-dihydro-5-trifluoromethyl-3-isoxazolyl)-2-methylphenyl)-3-chlorobenzamide] | ≥ 80% |
| COc1ccc(C(=O)Nc2cc(C3=NOC(c4cc(Cl)cc(Cl)c4)(C(F)(F)F)C3)ccc2C)cc1 (centres unmarked) [present compound (30), N-(5-(5-(3,5-dichlorophenyl)-4,5-dihydro-5-trifluoromethyl-3-isoxazolyl)-2-methylphenyl)-4-methoxybenzamide] | ≥ 80% |
| Cc1ccc(C2=NOC(c3cc(Cl)cc(Cl)c3)(C(F)(F)F)C2)cc1NC(=O)c1ccc(C(F)(F)F)cc1 (centres unmarked) [present compound (31), N-(5-(5-(3,5-dichlorophenyl)-4,5-dihydro-5-trifluoromethyl-3-isoxazolyl)-2-methylphenyl)-4-trifluoromethylbenzamide] | ≥ 80% |
| C/C=C/C(=O)Nc1cc(C2=NOC(c3cc(Cl)cc(Cl)c3)(C(F)(F)F)C2)ccc1C (centres unmarked) [present compound (48), N-(5-(5-(3,5-dichlorophenyl)-4,5-dihydro-5-trifluoromethyl-3-isoxazolyl)-2-methylphenyl)crotonamide] | ≥ 80% |
| Cc1ccc(C2=NOC(c3cc(Cl)cc(Cl)c3)(C(F)(F)F)C2)cc1NC(=O)N(C)C (centres unmarked) [present compound (57), 3-(5-(5-(3,5-dichlorophenyl)-4,5-dihydro-5-trifluoromethyl-3-isoxazolyl)-2-methylphenyl)-1,1-dimethylurea] | ≥ 80% |
| CCOC(=O)Nc1cc(C2=NOC(c3cc(Cl)cc(Cl)c3)(C(F)(F)F)C2)ccc1C (centres unmarked) [present compound (60), N-(5-(5-(3,5-dichlorophenyl)-4,5-dihydro-5-trifluoromethyl-3-isoxazolyl)-2-methylphenyl)-O-ethylcarbamate] | ≥ 80% |
| Cc1ccc(C2=NOC(c3cc(Cl)cc(Cl)c3)(C(F)(F)F)C2)cc1NC(=O)OCC(C)C (centres unmarked) [present compound (64), N-(5-(5-(3,5-dichlorophenyl)-4,5-dihydro-5-trifluoromethyl-3-isoxazolyl)-2-methylphenyl)-O-isobutylcarbamate] | ≥ 80% |
| CCc1ccc(C2=NOC(c3cc(Cl)cc(Cl)c3)(C(F)(F)F)C2)cc1NC(=O)CC(F)(F)F (centres unmarked) [present compound (71), N-(3-(5-(3,5-dichlorophenyl)-4,5-dihydro-5-trifluoromethyl-3-isoxazolyl)-6-ethylphenyl)-3,3,3-trifluoropropionylamide] | ≥ 80% |
| Cc1c(NC(=O)CC(F)(F)F)cccc1C1=NOC(c2cc(Cl)cc(Cl)c2)(C(F)(F)F)C1 (centres unmarked) [present compound (72), N-(3-(5-(3,5-dichlorophenyl)-4,5-dihydro-5-trifluoromethyl-3-isoxazolyl)-2-methylphenyl)-3,3,3-trifluoropropionylamide] | ≥ 80% |
| COc1ccc(C2=NOC(c3cc(Cl)cc(Cl)c3)(C(F)(F)F)C2)cc1NC(=O)CC(F)(F)F (centres unmarked) [present compound (78), N-(5-(5-(3,5-dichlorophenyl)-4,5-dihydro-5-trifluoromethyl-3-isoxazolyl)-2-methoxyphenyl)-3,3,3-trifluoropropionylamide] | ≥ 80% |
